Measured values from paper PMC10439952, “JT002, a small molecule inhibitor of the NLRP3 inflammasome for the treatment of autoinflammatory disorders” (Scientific Reports, 2023).

Tested on: Nlrp3 A350V/+ CreT knock-in mice
Test: Nlrp3 A350V/+ CreT knock-in mouse model of Muckle Wells syndrome
Assay type: in vivo
Details: 30 mg/kg orally once daily
Experimental: The effect of JT002 treatment on systemic and hepatic inflammation and hepatic fibrosis was evaluated in vivo using a murine Nlrp3 knock-in (KI) model of human Muckle Wells syndrome. In humans, mutation of alanine 352 to valine (A352V) in NLRP3 results in the constitutively active NLRP3 inflammasome which leads to excessive cytokine production and a clinical presentation characteristic of MWS[11]. The Nlrp3^A350V/+ CreT KI murine model (Nlrp3 KI model) contains a conditional A350V autosomal-dominant mutation that is analogous to the human A352V mutation[13],[23],[25]. In this model, mutant Nlrp3 expression occurs only in mice expressing Cre recombinase, which is inducible through the administration of tamoxifen, thus allowing for temporal control of the gain-of-function mutant Nlrp3. In vehicle-control mice, tamoxifen-induced activation of mutant Nlrp3 produces an inflammatory and fibrotic phenotype consisting of weight loss, increased liver weight, elevated liver alanine aminotransferase (ALT), systemic and hepatic neutrophilia, increased hepatic collagen deposition, and increased numbers of activated hepatic stellate cells (HSCs)[13],[23],[25]. In the Nlrp3^A350V/+ CreT study, vehicle or 30 mg/kg JT002 (n = 4/group) was dosed orally once daily starting one day prior to the first administration of tamoxifen. One animal from each group was found dead on day 4 and day 11 from the JT002 dosed group and the vehicle group, respectively, leaving only 3 animals per group. […] Serum levels of ALT in vehicle-treated mice averaged 186 U/L while ALT levels were reduced to 93 U/L in mice administered JT002 (Fig. 4C).
Total RNA was isolated from liver tissue (~ 50 mg) via syringe homogenization in TRIzol™ and cDNA synthesized using the iScript™ cDNA Synthesis kit (Biorad, Hercules, CA, USA). Real-time PCR was performed using TaqMan Fast Advanced Master Mix (ThermoFisher) and samples were amplified using QuantStudio-7 (ThermoFisher) in accordance with manufacturers’ instructions. The following TaqMan Gene Expression Assays (cat. no. 4331182, Applied Biosystems, Foster City, CA) were used: Acta2, Mm00725412_s1; Ctgf, Mm01192933_g1; Mpo, Mm01298424_m1; Pycard, Mm00445747_g1; Casp1, Mm00438023_m1; Il1b assay ID Mm00434228_m1.
Nlrp3^A350V/+ CreT knock-in mice were provided by Hal M. Hoffman, University of California, San Diego, USA. The study was performed using two randomized groups of male and female Nlrp3^A350V/+ CreT mice (n = 4/group) between 6- and 8-weeks of age at the start of the study. Vehicle (0.5% methyl cellulose, 0.25% Tween 80 in 50 mM NaH2PO4/Na2HPO4 at pH 7.8) or JT002 at 30 mg/kg was administered orally once daily for 30 days starting on Day 1. Tamoxifen (free base) (MP Biomedicals, Solon, OH, USA) was prepared in 90% sunflower seed oil and 10% ethanol and administered at 50 mg/kg intraperitoneally (IP) daily for 4 consecutive days, starting on Day 1, followed by a booster injection on Day 16. Mice were weighed every day to monitor compound activity. On Day 29, a submandibular cheek bleed was performed to obtain whole blood for total blood cell counting. Mice were euthanized on Day 30 and blood and livers were harvested and stored appropriately. Tissue specimens were fixed in 10% formalin and subsequently embedded in paraffin for histopathological assessments, or snap frozen in liquid N2 and stored in low temperature freezers. Complete blood counts and differentials were conducted on a HemaVet Auto Blood Analyzer (Drew Scientific, Miami Lakes, FL, USA). In vitro quantitative determination of alanine aminotransferase (ALT) in serum was performed using the Infinity™ ALT (GPT) Liquid Stable Reagent (cat. n. TR71121, Fisher Diagnostics, Middletown, VA, USA). Sirius Red staining and immunohistochemistry for hepatic MPO and αSMA were performed as described previously.

## CO[C@@H]1COc2c(S(=O)(=O)NC(=O)Nc3c4c(cc5c3CCC5)CCC4)cnn2C1 [JT002]
  body weight loss: prevented the body weight loss
  circulating eosinophil count: strong trend for reduced
  circulating neutrophil count: significant normalization
  circulating total white blood cell count: significant normalization
  degree of liver inflammation by H&E staining: visible reduction in the degree of inflammation
  hepatic collagen content (Picrosirius red staining): considerably reduced
  hepatic gene expression of Acta2: substantially downregulated
  hepatic gene expression of Casp1: substantially reduced
  hepatic gene expression of Ctgf: substantially downregulated
  hepatic gene expression of Il1b: substantially reduced
  hepatic gene expression of Mpo: substantially reduced
  hepatic gene expression of Pycard (ASC): substantially reduced
  reduction in hepatic immunostaining for αSMA (HSC activation): 93%
  reduction of hepatic neutrophil recruitment (myeloperoxidase immunostaining): 91%
Vehicle 9.4
  liver weight as a percent of body weight: 5.7%
Vehicle 186 U/L
  serum ALT level: 93 U/L
